Assay results published in ChEMBL document CHEMBL3886918, “Pyrimidine compounds useful in the treatment of diseases mediated by IKKE and/or TBK1 mechanisms” (2016).

molecular target: T1, Serine/threonine-protein kinase TBK1 (Homo sapiens, UniProt Q9UHD2); assay: Time-Resolved Fluorescence-based Lanthascreen Assay: Kinase inhibition assays (10 μL) were performed at 20° C. in 384-well plate format. Compound IC50 values were determined at the apparent Km for ATP (20 μM) based on a radiometric assay (Invitrogen) using 8 or 10 point curves in duplicate. The final reaction conditions contained 400 nM fluorescein-IkBα substrate ([…]), 20 μM ATP, 2 nM or 8 nM IKKε or TBK1 kinase respectively, and 3% DMSO in kinase assay buffer consisting of 50 mM HEPES (pH 7.5), 10 mM MgCl, 1 mM EGTA, 0.01% Brij-35.Compound dilutions were prepared from 10 mM DMSO stocks by dilution into DMSO. Compound dilution series were further diluted in kinase assay buffer to give a 12% DMSO stock, the final concentration in the assay being 3% DMSO.The kinase phosphorylation assay was initiated by the addition of the kinase and the reaction was allowed to proceed for 1 h or 2.5 h for IKKε and TBK-1 kinase respectively.
T1 sequence (Q9UHD2 whole entry): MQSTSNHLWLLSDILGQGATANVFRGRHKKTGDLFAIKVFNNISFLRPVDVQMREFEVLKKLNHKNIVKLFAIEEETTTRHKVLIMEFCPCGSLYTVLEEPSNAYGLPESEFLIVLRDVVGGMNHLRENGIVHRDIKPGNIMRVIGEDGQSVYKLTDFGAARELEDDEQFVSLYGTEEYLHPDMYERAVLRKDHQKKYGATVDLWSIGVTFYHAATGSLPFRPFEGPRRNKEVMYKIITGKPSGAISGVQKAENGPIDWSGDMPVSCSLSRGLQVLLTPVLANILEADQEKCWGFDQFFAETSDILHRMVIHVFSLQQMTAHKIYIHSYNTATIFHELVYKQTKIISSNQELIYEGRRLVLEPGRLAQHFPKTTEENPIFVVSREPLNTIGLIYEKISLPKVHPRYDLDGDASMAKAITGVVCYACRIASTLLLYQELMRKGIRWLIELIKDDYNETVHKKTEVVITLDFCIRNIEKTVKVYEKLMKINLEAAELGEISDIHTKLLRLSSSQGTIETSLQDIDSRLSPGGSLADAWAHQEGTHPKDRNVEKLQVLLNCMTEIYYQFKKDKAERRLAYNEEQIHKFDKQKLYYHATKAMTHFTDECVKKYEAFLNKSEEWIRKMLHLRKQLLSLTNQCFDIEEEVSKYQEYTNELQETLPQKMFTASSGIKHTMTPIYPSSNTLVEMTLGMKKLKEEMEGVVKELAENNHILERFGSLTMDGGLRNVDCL

SMILES	IC50 [nM]
CC(=O)NC1CCN(c2ncc(-c3ccnc(Nc4ccc(CN5CCOCC5)nc4)n3)cc2C#N)C1 (stereo not given)	< 1000
N#Cc1cc(-c2ccnc(Nc3ccc(N)nc3)n2)cnc1N1CC[C@H](F)C1	< 30
N#Cc1cc(-c2nc(Nc3ccnc(NC(=O)CN4CCOCC4)c3)ncc2F)cnc1N1CC[C@H](F)C1	< 30
N#Cc1cc(-c2ccnc(Nc3ccc(CN4C(=O)OCC4CO)nc3)n2)cnc1N1CC[C@H](F)C1 (stereo not given in full)	< 30
N#Cc1cc(-c2ccnc(Nc3cccc(C(=O)N4CCNCC4)c3)n2)cnc1N1CC[C@H](F)C1	< 30
